{
  "source": "patent US9557319B2",
  "about": "“Cell-based arrays, methods of making, and methods of using” (University of Florida Research Foundation, Inc., priority 2010, dated 2017)",
  "assay_type_in_all_cases": "cell-based, human",
  "key": {"[1]": {"tested_on": "CA1 CCSCs", "assay": "CA1 patient-derived CCSC proliferation on drug-eluting microarray", "details": "for proliferation with increasing drug exposure: CA1 cells, single drug; for Emax / drug sensitivity (1/D50): non-proliferation", "description": "ALDH^high spheres were generated from tumor cells obtained from patients with colon cancer. Isolated cells were cultured in serum-free media as previously described^14 (reference 14 is hereby incorporated by reference herein with respect to methods for culturing cells in serum-free media). Using these cultures, adherent cell growth was established with 0.1% gelatin (Millipore) coatings on tissue culture plates (TPP, Switzerland) and the cells were serially propagated. For CA1 and CA2 cells, 25,000 cells were tested per array. Cells were seeded in PBS with 0.1% gelatin and treated identically to the microarrays with HCT116.\n(§1) Camptothecin-loaded microarrays were stained with Annexin V (BD Pharminigen), fixed in 4% paraformaldehyde, and placed in PBS with Hoechst dye 34580 (Invitrogen, USA) for 30 min. Azide-loaded microarrays were fixed with 4% paraformaldehyde and incubated with PBS containing Hoechst 34580 dye. Finally, nutlin-3a-loaded microarrays were fixed with 4% paraformaldehyde, stained with BrdU (BD Bioscience, San Jose, Calif.), and incubated in PBS containing Hoechst 34580 dye. All arrays were mounted with Fluoro-Gel (Electron Microscope Sciences, Hatfield, Pa.) and imaged using an Axiovert 200M microscope (Carl Zeiss, Oberkochen, Germany). Analysis was performed with Axiovision (Carl Zeiss, Oberkochen, Germany) by quantifying, in each drug-eluting island, the area of fluorescence and reported as relative fluorescence intensity (RFI).\nProliferation values were normalized to control (0 μM drug). Values for concentration-response curves were transformed to non-proliferation by subtracting the normalized value from 100%. Curve fitting analysis was performed to obtain Emax and D50 values using the equation E=E0+(Emax×D)/(D+D50) where E is the effect (either non-proliferation or apoptosis), E0 is the initial value, Emax is the maximum effect, D is the dose, and D50 is the dose at which a 50% maximum effect (Emax) is observed^34. Drug sensitivity values were obtained by taking the inverse of the D50 and multiplying by 100. Those values marked with “#” indicate that the r^2 value of the curve-fit was below 0.65. N/A values are present where negative parameters were obtained."}, "[2]": {"tested_on": "HCT116 cells", "assay": "Proliferation of HCT116 cells incubated with soluble drugs in 96-well plates", "details": "soluble drug, 24 h", "description": "(§2) FIGS. 12A-12D are a series of graphs illustrating apoptosis and proliferation dose-response curves from HCT116 cells incubated with soluble drugs. FIG. 12A illustrates the percent of apoptotic HCT116 cells incubated 24 h with soluble nutlin-3a. […] Significant differences were determined by ANOVA, {F(5,282)=19.694, p<0.05}, followed by Tukey's post-hoc analysis. FIG. 12C illustrates the percent of non-proliferating HCT116 cells incubated 24 h with soluble nutlin-3a. Significant differences were determined by ANOVA, {F(4,226)=12.643, p<0.05}, followed by Tukey's post-hoc analysis. […] Significant differences were determined by ANOVA, {F(5,252)=102.485, p<0.05}, followed by Tukey's post-hoc analysis. (*: p<0.05 compared to all other conditions, #:p<0.05 from all conditions marked *).\n(§3) Results were corroborated using soluble drugs in 96-well plates (FIGS. 12A-D)."}, "[3]": {"tested_on": "HCT116 cells", "assay": "HCT116 cell number (Hoechst nuclear stain) on drug-loaded microarray", "details": "after 72 h", "excerpt": "The following figures (FIGS. 5.1 to 5.4) are micrographs taken from drug-eluting cellular microarrays, manufactured as described herein. The images are taken from individual cellular islands from the same array under various drug-loading conditions over a period of three days. HCT116 cells are nuclear stained with Hoechst for easy visibility. […] The water phase for this experiment was loaded with azide at various concentrations in addition to a control with no drug loaded. Azide is a useful probe reagent, mutagen, and preservative. Azide inhibits cytochrome oxidase by binding irreversibly to the heme cofactor in a process similar to the action of carbon monoxide. As such, it is expected to induce necrosis in cells at physiologically relevant doses.\nTo establish microarray fidelity, microarrays were manufactured as described above. HCT116 cells were then seeded over microarrays and incubated for 24 or 72 h. Microarrays were fixed in 4% paraformaldehyde and stained with Hoechst 34580 dye.\nas §1"}, "[4]": {"tested_on": "HCT116 cells", "assay": "Apoptosis of HCT116 cells incubated with soluble drugs in 96-well plates", "details": "soluble drug, 24 h", "description": "as §2, §3"}, "[5]": {"details": "Nutlin dose response, 2nd drug CPT 50 μM, CA1"}},
  "note": "Like-named read-outs stand apart in the source and are kept apart here. Marks after values point to notes of the source that are not given here.",
  "data": [
    {"smiles": "COc1ccc(C2=N[C@@H](c3ccc(Cl)cc3)[C@@H](c3ccc(Cl)cc3)N2C(=O)N2CCNC(=O)C2)c(OC(C)C)c1", "note": "[Nutlin-3a]", "values": [
      {"measurement": "increase in sensitivity to nutlin-3a", "setting": "[1]; 10 μM camptothecin present vs nutlin-3a alone, CA1", "value": 75, "unit": "%"},
      {"measurement": "increase in Emax of the nutlin-3a concentration response curve", "setting": "[1]; 50 μM camptothecin present vs nutlin-3a alone, CA1", "value": 115, "unit": "%"},
      {"measurement": "proliferation with increasing drug exposure", "setting": "[1]", "value": "decreasing proliferation"},
      {"measurement": "Emax", "setting": "[1]; Nutlin dose response, 2nd drug CPT 0 μM, CA1", "value": 38.0},
      {"measurement": "drug sensitivity (1/D50)", "setting": "[1]; Nutlin dose response, 2nd drug CPT 0 μM, CA1, listed as Nutlin", "value": "28.6 +/− 4.7*"},
      {"measurement": "drug sensitivity (1/D50)", "setting": "[1]; Nutlin dose response, 2nd drug CPT 0 μM, CA1, listed as nutlin-3a", "value": 28.6},
      {"measurement": "Emax", "setting": "[1]; Nutlin dose response, 2nd drug CPT 1 μM, CA1", "value": "34.7 +/− 5.9"},
      {"measurement": "Emax", "setting": "[1]; Nutlin dose response, 2nd drug CPT 10 μM, CA1", "value": "50.9 +/− 0.15"},
      {"measurement": "drug sensitivity (1/D50)", "setting": "[1]; Nutlin dose response, 2nd drug CPT 10 μM, CA1, listed as Nutlin", "value": "50.0 +/− 1.3*"},
      {"measurement": "drug sensitivity (1/D50)", "setting": "[1]; Nutlin dose response, 2nd drug CPT 10 μM, CA1, listed as nutlin-3a", "value": 50.0},
      {"measurement": "Emax", "setting": "[1]; [5]", "value": 81.7},
      {"measurement": "drug sensitivity (1/D50)", "setting": "[1]; [5]", "value": "55.6 +/− 180"},
      {"measurement": "effect on reducing proliferation of HCT116 cells", "setting": "[2]", "value": "dose-dependent effect"},
      {"measurement": "HCT116 cell numbers vs drug loading concentration", "setting": "[3]", "value": "decreased with increasing loading concentrations"},
      {"measurement": "effect on inducing apoptosis of HCT116 cells", "setting": "[4]", "value": "no effect"}
    ]},
    {"smiles": "CC[C@@]1(O)C(=O)OCc2c1cc1n(c2=O)Cc2cc3ccccc3nc2-1", "note": "[Camptothecin]", "values": [
      {"measurement": "proliferation with increasing drug exposure", "setting": "[1]", "value": "decreasing proliferation"},
      {"measurement": "drug sensitivity (1/D50)", "setting": "[1]; Camptothecin dose response, 2nd drug NUT 0 μM, CA1", "value": "10.8 +/− 16"},
      {"measurement": "drug sensitivity (1/D50)", "setting": "[1]; Camptothecin dose response, 2nd drug NUT 1 μM, CA1", "value": "1.97 +/− 7.7"},
      {"measurement": "drug sensitivity (1/D50)", "setting": "[1]; Camptothecin dose response, 2nd drug NUT 25 μM, CA1", "value": "3.18 +/− 0.40"},
      {"measurement": "drug sensitivity (1/D50)", "setting": "[1]; Camptothecin dose response, 2nd drug NUT 125 μM, CA1", "value": "0.62 +/− 1.8"},
      {"measurement": "Emax", "setting": "[1]; Homo sapiens, Camptothecin dose response, 2nd drug NUT 0 μM, CA1, read-out: Emax", "value": 61.9, "unit": "%"},
      {"measurement": "Emax", "setting": "[1]; Homo sapiens, Camptothecin dose response, 2nd drug NUT 1 μM, CA1, read-out: Emax", "value": 105, "unit": "%"},
      {"measurement": "Emax", "setting": "[1]; Homo sapiens, Camptothecin dose response, 2nd drug NUT 25 μM, CA1, read-out: Emax", "value": 109, "unit": "%"},
      {"measurement": "Emax", "setting": "[1]; Homo sapiens, Camptothecin dose response, 2nd drug NUT 125 μM, CA1, read-out: Emax", "value": 221, "unit": "%"},
      {"measurement": "effect on reducing proliferation of HCT116 cells", "setting": "[2]", "value": "dose-dependent effect"},
      {"measurement": "effect on inducing apoptosis of HCT116 cells", "setting": "[4]", "value": "dose-dependent effect"}
    ]}
  ]
}
